Laboratory results as given in patent US10799605B2 (3B PHARMACEUTICALS GMBH, priority 2014, dated 2020).

How the values were obtained:
NTR1 [1] = biological target: T1, NTR1 (Homo sapiens (Human), UniProt P30989); assay: Functional Ca2+ mobilisation assay (example part I); format: cell-based
Text: Ca^2+ ions are usually kept at nanomolar levels in the cytosol of cells, and act in a number of signal transduction pathways as second messengers. […] Changes in calcium ion concentration in standard assay protocols can be readily detected with fluorescent dyes that emit light when changes in intracellular Ca^2+ ion concentration occur. Given the transient nature of these responses, they are often read with instrumentation that has ‘inject and read’ capability.
HT29 or NTR1-expressing HEK293 cells were trypsinized and seeded into black flat clear-bottom 96-well plates (Corning, Amsterdam, The Netherlands) at […] cells per well. After 24 h incubation at 37° C. and 5% CO2, cells were washed twice with wash buffer (130 mM NaCl, 5 mM KCl, 10 mM Hepes, 2 mM CaCl2, 10 mM Glucose, pH 7.4) and loaded with 100 μl of Ca5 dye (Molecular Devices, Biberach, Germany) for 1 h at 37° C. and 5% CO2. For agonist assays, serial dilutions of agonistic substances were added to the cells loaded with dye and the change of the fluorescent signal was recorded continually for approx. 90 s using a FlexStation II (Molecular Devices, Biberach, Germany). Addition of wash buffer served as a control. Thus, EC50 concentrations for each conjugate were computed and provided a measure for the potency of the substance. For antagonist assays, cells loaded with 100 μl of Ca5-dye were pre-incubated with serial dilutions of antagonistic substances for 30 min, before the EC80-concentration of agonist was added to the cells and the change of the fluorescent signal was recorded continually for approx. 90 s. Thus, IC50 concentrations were computed for each conjugate and provided a measure for the inhibitory activity of the conjugates at the NTR1.

NTR1 [2] = biological target: T1, NTR1; assay: Radioligand binding assay NTR1 (example part I)
Protocol: In order to determine the binding affinity of compounds comprising a radiolabel for NTR1, a radioligand binding assay was carried out. A radioligand is a radioactive biochemical substance that is used for diagnosis or for research-oriented study of cellular receptor systems of the body. In […] systems it is often used to quantify the binding of a test molecule to the binding site of radioligand. The higher the affinity of the molecule, the more radioligand is displaced from the binding site. The amount of bound radioligand can be measured by scintillation counting and thereby quantified. This assay is commonly used to calculate binding constants of molecules to receptors.
The NTR1 radioligand binding assay was performed by Cerep (Celle l'Evescault, France; Catalog reference 0109) according to Vita et al., FEBS Lett., 1993, 317, 139-142. NTR1 was prepared from CHO cells recombinantly expressing the human receptor and incubated with 0.05 nM ^125I-(Tyr^3-neurotensin) and serial dilutions of the test compounds. […] The result for each test compound is expressed as IC50 concentration and provides a measure for the affinity of the test compound for NTR1.

T1 sequence (P30989 whole entry): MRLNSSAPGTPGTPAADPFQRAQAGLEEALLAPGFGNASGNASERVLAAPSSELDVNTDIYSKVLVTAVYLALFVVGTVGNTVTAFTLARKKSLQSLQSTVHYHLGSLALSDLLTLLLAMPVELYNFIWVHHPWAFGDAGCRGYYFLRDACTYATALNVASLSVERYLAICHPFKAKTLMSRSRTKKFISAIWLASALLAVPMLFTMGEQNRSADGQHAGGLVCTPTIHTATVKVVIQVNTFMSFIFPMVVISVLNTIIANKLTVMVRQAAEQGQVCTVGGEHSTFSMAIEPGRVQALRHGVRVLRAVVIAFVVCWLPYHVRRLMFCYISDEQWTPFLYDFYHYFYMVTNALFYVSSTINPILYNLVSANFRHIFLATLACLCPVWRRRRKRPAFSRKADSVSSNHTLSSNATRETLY

COc1cccc(OC)c1-c1cc(C(=O)NC2(C(=O)O)C3CC4CC(C3)CC2C4)nn1-c1ccc(C(=O)N(C)CCCN(C)CCCN(C)C(=O)CCCC(=O)NCCCC[C@H](NC(=O)CCC(=O)NCCCOCCOCCOCCCNC(=O)CCC(=O)NCCCOCCOCCOCCCNC(=O)CCC(=O)NCCCOCCOCCOCCCNC(=O)[C@H](CCCCNC(=O)CN2CCN(CC(=O)O)CCN(CC(=O)O)CCN(CC(=O)O)CC2)NC(=O)CCC(=O)NCCCOCCOCCOCCCNC(=O)CCC(=O)NCCCOCCOCCOCCCNC(=O)CCC(=O)NCCCOCCOCCOCCCNC(=O)CCCNC(=O)[C@@H](NC(=O)[C@H](CCCNC(=N)N)NC(=O)[C@H](C)NC(=O)[C@@H](NC(=O)[C@H](CCCCN)NC(=O)[C@H](CCC(N)=O)NC(=O)[C@H](C)NC(=O)[C@H](CC(C)C)NC(=O)[C@@H](NC(=O)[C@H](CCC(N)=O)NC(=O)[C@H](CC(C)C)NC(=O)[C@H](CC(=O)O)NC(=O)CNC(=O)[C@H](CCCNC(=N)N)NC(=O)[C@H](CC(C)C)NC(=O)[C@H](CC(N)=O)NC(=O)[C@@H]2CCCN2C(=O)[C@@H](NC(=O)[C@H](C)NC(=O)[C@H](CC(N)=O)NC(C)=O)C(C)C)C(C)C)C(C)C)[C@@H](C)O)C(N)=O)cc1C(C)C (stereo partly drawn) [(22)]
EC50 (NTR1 [1]): > 50000 nM
IC50 (NTR1 [1]): 21 nM
IC50 (NTR1 [2]): 9.1 nM

COc1cccc(OC)c1-c1cc(C(=O)NC2(C(=O)O)C3CC4CC(C3)CC2C4)nn1-c1ccc(C(=O)N(C)CCCN(C)CCCN(C)C(=O)CCCC(=O)NCCCOCCOCCOCCCNC(=O)CCC(=O)NCCCOCCOCCOCCCNC(=O)CCC(=O)NCCCOCCOCCOCCCNC(=O)CCC(=O)N[C@@H](CC(N)=O)C(=O)N[C@@H](C)C(=O)N[C@H](C(=O)N2CCC[C@H]2C(=O)N[C@@H](CC(N)=O)C(=O)N[C@@H](CC(C)C)C(=O)N[C@@H](CCCNC(=N)N)C(=O)NCC(=O)N[C@@H](CC(=O)O)C(=O)N[C@@H](CC(C)C)C(=O)N[C@@H](CCC(N)=O)C(=O)N[C@H](C(=O)N[C@@H](CC(C)C)C(=O)N[C@@H](C)C(=O)N[C@@H](CCC(N)=O)C(=O)N[C@@H](CCCCN)C(=O)N[C@H](C(=O)N[C@@H](C)C(=O)N[C@@H](CCCNC(=N)N)C(=O)N[C@H](C(=O)NCCCC(=O)NCCCOCCOCCOCCCNC(=O)CCC(=O)N[C@@H](CCCCNC(=O)CN2CCN(CC(=O)O)CCN(CC(=O)O)CCN(CC(=O)O)CC2)C(N)=O)[C@@H](C)O)C(C)C)C(C)C)C(C)C)cc1C(C)C (stereo partly drawn) [(24)]
EC50 (NTR1 [1]): > 50000 nM
IC50 (NTR1 [1]): 38 nM
IC50 (NTR1 [2]): 9.9 nM

COc1cccc(OC)c1-c1cc(C(=O)NC2(C(=O)O)C3CC4CC(C3)CC2C4)nn1-c1ccc(C(=O)N(C)CCCN(C)CCCN(C)C(=O)CCCC(=O)NCCCC[C@H](NC(=O)CCC(=O)NCCCOCCOCCOCCCNC(=O)CCC(=O)NCCCOCCOCCOCCCNC(=O)CCC(=O)NCCCOCCOCCOCCCNC(=O)[C@H](CCCCNC(=O)CN2CCN(CC(=O)O)CCN(CC(=O)O)CCN(CC(=O)O)CC2)NC(=O)CCC(=O)NCCCOCCOCCOCCCNC(=O)CCC(=O)NCCCOCCOCCOCCCNC(=O)CCC(=O)NCCCOCCOCCOCCCNC(=O)CCCC(=O)N(C)CCCN(C)CCCN(C)C(=O)c2ccc(-n3nc(C(=O)NC4(C(=O)O)C5CC6CC(C5)CC4C6)cc3-c3c(OC)cccc3OC)c(C(C)C)c2)C(N)=O)cc1C(C)C (stereo partly drawn) [(15), 1206-Glutar-Ttds3-Lys(DOTA)-Ttds3-(ε-Lys-NH2)-Glutar-1206]
EC50 (NTR1 [1]): > 50000 nM
IC50 (NTR1 [1]): 2.3 nM
IC50 (NTR1 [2]): 4.7 nM
